Experimental data from patent US9422357.

Settings: disulfide bond; 38-membered ring

Q: For S1C(disialo)•N19C(GlcNAc)-SRIF28, which ring closure, yield after HPLC is on record?
A: The ring closure, yield after HPLC was 59%.
